Values quoted from earlier work, collected in patent US20240189234A1, “SILICON PARTICLES FOR DRUG DELIVERY” (NACAMED AS, priority 2021, published 2024).

Conditions: calculated log P values from Foye's Principles of Medicinal Chemistry
In the case of COC(=O)[C@H]1[C@H]2C[C@@H]3c4[nH]c5ccccc5c4CCN3C[C@H]2C[C@@H](OC(=O)c2cc(OC)c(OC)c(OC)c2)[C@@H]1OC [deserpidine], the “log P” value is given as 4.95.
For CCNC(C)Cc1cccc(C(F)(F)F)c1 (stereo not drawn) [fenfluramine], the “log P” value is given as 3.55.
In the case of CC(CN(C)C)CN1c2ccccc2Sc2ccccc21 (stereo not drawn) [trimeprazine], the “log P” value is listed as 5.04.
In the case of CN1CCN=C(c2ccccc2)c2cc(Cl)ccc21 [medazepam], the “log P” value is given as 3.89.
For O=C(O)c1cc(-c2ccc(F)cc2F)ccc1O [diflunisal], the “log P” value is given as 3.65.
In the case of CN(C)CC/C=C1/c2ccccc2Sc2ccc(Cl)cc21 [chlorprothixene], the “log P” value is listed as 5.31.
For CO[C@@H]1[C@@H](OC(N)=O)[C@@H](O)[C@H](Oc2ccc3c(O)c(NC(=O)c4ccc(O)c(CC=C(C)C)c4)c(=O)oc3c2C)OC1(C)C [novobiocin], the “log P” value is listed as 3.74.
In the case of COc1ccc2c(c1)N(C[C@H](C)CN(C)C)c1ccccc1S2 [methotrimeprazine], the “log P” value is given as 4.94.
For CN(C)CCCN1c2ccccc2Sc2ccc(Cl)cc21 [chlorpromazine], the “log P” value is given as 5.35.
For Clc1ccccc1C(c1ccccc1)(c1ccccc1)n1ccnc1 [clotrimazole], the “log P” value is given as 4.92.
For Cc1ccsc1C(=CCCN1CCC[C@@H](C(=O)O)C1)c1sccc1C [tiagabine], the “log P” value is given as 4.03.
In the case of CN1CCC(OC(c2ccccc2)c2ccccc2)CC1 [diphenylpyraline], the “log P” value is given as 3.43.
In the case of CCCCN1CCCCC1C(=O)Nc1c(C)cccc1C (stereo not drawn) [bupivacaine], the “log P” value is given as 3.31.
In the case of CCCCNc1ccc(C(=O)OCCN(C)C)cc1 [tetracaine], the “log P” value is listed as 3.75.
In the case of Clc1ccc(C/C(=C\CN2CCCC2)c2ccccc2)cc1 [pyrrobutamine], the “log P” value is listed as 4.57.
In the case of OCc1cc(C(O)CNCCCCCCOCCCCc2ccccc2)ccc1O (stereo not drawn) [salmeterol], the “log P” value is listed as 3.71.
For O=C(O)COc1ccc(C(=O)c2cccs2)c(Cl)c1Cl [ticrynfen], the “log P” value is listed as 3.05.
For C[C@H]1[C@H]2Cc3ccc(O)cc3[C@]1(C)CCN2CC1CC1 [cyclazocine], the “log P” value is given as 3.52.
In the case of CCN(CC)C(C)CN1c2ccccc2Sc2ccccc21 (stereo not drawn) [ethopropazine], the “log P” value is listed as 4.77.
For CCOC(=O)C(C)(C)Oc1ccc(Cl)cc1 [clofibrate], the “log P” value is given as 3.88.
In the case of Cc1ccc(C(=O)Oc2ccc(C(O)CNC(C)(C)C)cc2OC(=O)c2ccc(C)cc2)cc1 (stereo not drawn) [bitolterol], the “log P” value is given as 4.16.
For CCCCOc1cc(C(=O)NCCN(CC)CC)c2ccccc2n1 [dibucaine], the “log P” value is given as 4.40.
For CCCCCc1cc(O)c2c(c1)OC(C)(C)[C@@H]1CCC(C)=C[C@@H]21 [tetrahydrocannabinol], the “log P” value is given as 6.84.
For CCc1cc2c(cc1CC)CC(NC[C@H](O)c1ccc(O)c3[nH]c(=O)ccc13)C2 [indacaterol], the “log P” value is listed as 3.88.
For COc1ccc2c(c1)[C@]13CCCC[C@@H]1[C@H](C2)N(C)CC3 [dextromethorphan], the “log P” value is listed as 3.89.
For Cc1ccccc1C(OCCN(C)C)c1ccccc1 (stereo not drawn) [orphenadrine], the “log P” value is listed as 3.33.
For CN(C)CCCN1c2ccccc2Sc2ccccc21 [promazine], the “log P” value is given as 4.69.
For CCN(CC)C(=O)/C(C#N)=C/c1cc(O)c(O)c([N+](=O)[O-])c1 [entacapone], the “log P” value is given as 3.02.
In the case of CCCCC1=NC2(CCCC2)C(=O)N1Cc1ccc(-c2ccccc2-c2nnn[nH]2)cc1 [irbesartan], the “log P” value is given as 5.25.
In the case of CNCC[C@@H](Oc1ccccc1C)c1ccccc1 [atomoxetine], the “log P” value is listed as 3.36.
In the case of CC(C)C(=O)Nc1ccc([N+](=O)[O-])c(C(F)(F)F)c1 [flutamide], the “log P” value is given as 3.52.
In the case of CC(C)(C)C(=O)OCOC(=O)[C@@H]1N2C(=O)[C@@H](NC(=O)[C@H](N)c3ccccc3)[C@H]2SC1(C)C [pivampicillin], the “log P” value is given as 3.88.
For OC(CNCC(O)C1CCc2cc(F)ccc2O1)C1CCc2cc(F)ccc2O1 (stereo not drawn) [nebivolol], the “log P” value is given as 4.08.
For CNCCCC12CCC(c3ccccc31)c1ccccc12 [maprotiline], the “log P” value is given as 4.36.
In the case of CCCN(CC)C(CC)C(=O)Nc1c(C)cccc1C (stereo not drawn) [etidocaine], the “log P” value is listed as 3.57.
In the case of CN(C)CCC=C1c2ccccc2COc2ccccc21 [doxepin], the “log P” value is given as 3.85.
